Test results: ChEMBL document CHEMBL5608199, “Quaternized antimicrobial peptide mimics based on harmane as potent anti-MRSA agents by multi-target mechanism covering cell wall, cell membrane and intracellular targets” (Eur J Med Chem, 2024)
Converted amounts (≈) assume the structure as drawn. The source made the active and inactive calls. No cut-off for these calls is given here.

Key:
Staphylococcus aureus [1] = assay: Antibacterial activity against methicillin-resistant Staphylococcus aureus; type: functional
Staphylococcus aureus [2] = assay: Antibacterial activity against Staphylococcus aureus CMCC 26003 incubated for 18 hrs by two fold serial broth dilution method; type: functional
Escherichia coli = assay: Antibacterial activity against Escherichia coli ATCC 8739 incubated for 18 hrs by two fold serial broth dilution method; type: functional
Staphylococcus aureus [3] = assay: Antibacterial activity against methicillin-resistant Staphylococcus aureus ATCC 33591 infected in cyclophosphamide treated female KM mouse skin infection model assessed as reduction in number of bacterial clones in skin at 3.3 mg/kg administered for 4 days and measured on day 5; type: functional, organism-based; details: time 5.0 day
Staphylococcus aureus [4] = assay: Antibacterial activity against methicillin-resistant Staphylococcus aureus ATCC 33591 infected in cyclophosphamide treated female KM mouse skin infection model assessed as reduction in inflammatory cell infiltration at 3.3 mg/kg administered for 4 days and measured on day 5 by H and E staining based analysis; type: functional, organism-based; details: time 5.0 day
Staphylococcus aureus [5] = assay: Drug resistance, ratio of MIC for methicillin-resistant Staphylococcus aureus ATCC 33591 after 9 passages to MIC for methicillin-resistant Staphylococcus aureus ATCC 33591 during first exposure; type: functional
Staphylococcus aureus [6] = assay: Drug resistance, ratio of MIC for methicillin-resistant Staphylococcus aureus ATCC 33591 after 10 passages to MIC for methicillin-resistant Staphylococcus aureus ATCC 33591 during first exposure; type: functional
Staphylococcus aureus [7] = assay: Drug resistance, ratio of MIC for methicillin-resistant Staphylococcus aureus ATCC 33591 after 12 passages to MIC for methicillin-resistant Staphylococcus aureus ATCC 33591 during first exposure; type: functional
Staphylococcus aureus [8] = assay: Antibacterial activity against methicillin-resistant Staphylococcus aureus ATCC 43300 incubated for 18 hrs by two fold serial broth dilution method; type: functional
Staphylococcus aureus [9] = assay: Antibacterial activity against methicillin-resistant Staphylococcus aureus CGMCC 1.12409 incubated for 18 hrs by two fold serial broth dilution method; type: functional
Staphylococcus aureus [10] = assay: Antibacterial activity against methicillin-resistant Staphylococcus aureus ATCC 33591 incubated for 18 hrs by two fold serial broth dilution method; type: functional
Staphylococcus aureus [11] = assay: Antibacterial activity against Staphylococcus aureus ATCC 29213 incubated for 18 hrs by two fold serial broth dilution method; type: functional
Staphylococcus sp. = assay: Antibacterial activity against Staphylococcus sp. 772 assessed as inhibition of bacterial growth incubated for 24 hrs by microdilution method; type: functional

| SMILES | MIC (Staphylococcus aureus [2]) | MIC (Escherichia coli) | MIC (Staphylococcus aureus [8]) | MIC (Staphylococcus aureus [9]) | MIC (Staphylococcus aureus [10]) | MIC (Staphylococcus aureus [11]) | other results |
| --- | --- | --- | --- | --- | --- | --- | --- |
| COc1ccc2c(c1)c1cc[n+](C)cc1n2CCCCCCCCn1c2ccc(OC)cc2c2cc[n+](C)cc21.[I-].[I-] | – | – | – | – | – | – | MIC (Staphylococcus aureus [1]): 2 µg/mL |
| CN[C@H](CC(C)C)C(=O)N[C@H]1C(=O)N[C@@H](CC(N)=O)C(=O)N[C@H]2C(=O)N[C@H]3C(=O)N[C@H](C(=O)N[C@H](C(=O)O)c4cc(O)cc(O)c4-c4cc3ccc4O)[C@H](O)c3ccc(c(Cl)c3)Oc3cc2cc(c3O[C@@H]2O[C@H](CO)[C@@H](O)[C@H](O)[C@H]2O[C@H]2C[C@](C)(N)[C@H](O)[C@H](C)O2)Oc2ccc(cc2Cl)[C@H]1O [VANCOMYCIN] | 0.25 µg/mL (≈ 0.173 µM) | > 128 µg/mL | – | – | – | – | Activity (Staphylococcus aureus [3]): Active; Activity (Staphylococcus aureus [4]): Active |
| CCn1cc(C(=O)O)c(=O)c2cc(F)c(N3CCNCC3)cc21 [NORFLOXACIN] | – | – | – | – | – | – | Ratio (Staphylococcus aureus [5]): 16; Ratio (Staphylococcus aureus [6]): >16; Ratio (Staphylococcus aureus [7]): 2 |
| Cc1nccc2c1[nH]c1ccccc12 [HARMAN] | 128 µg/mL (≈ 702 µM) | 8 µg/mL (≈ 43.9 µM) | 128 µg/mL (≈ 702 µM) | > 128 µg/mL | 128 µg/mL (≈ 702 µM) | 128 µg/mL (≈ 702 µM) | MIC (Staphylococcus sp.): 18 µg/mL (≈ 98.8 µM) |
| Cc1nccc2c3ccccc3n(CCCCCCCn3c4ccccc4c4ccnc(C)c43)c12 | > 128 µg/mL | > 128 µg/mL | > 128 µg/mL | > 128 µg/mL | > 128 µg/mL | > 128 µg/mL | – |
